Reference: patent publication US4980349A, “Sulphonamides derived from diarylmethanes, the processes for preparing them and pharmaceutical compositions containing them” (SANOFI, priority 1986, dated 1990)
Read-outs that look alike come from different tables or passages of the source.

Columns and labels:
[1] = system: rat hind foot kaolin-induced oedema; assay: Kaolin-induced arthritis test, first experiment (decrease in inflammation, foot volume); format: in vivo; conditions: 1 h before kaolin, Table IX, read-out: percentage decrease in the inflammation; for change in vivo at 25 mg/kg: 25 mg/kg oral; for change in vivo at 50 mg/kg: 50 mg/kg oral; for change in vivo at 100 mg/kg: 100 mg/kg oral
Experimental: The […] of 0.05 ml of a sterile 10% strength suspension of kaolin into the metatarsal flexor sheath of the hind foot of a rat initially induces an oedematous reaction. An inflammatory arthritis then forms.
The early oedematous reaction appears from the first hour, and reaches its maximum between the fourth hour and the sixth hour. This is the manifestation of interest. The assessment of the volume of the foot enables the action of substances on the oedematous reaction to be studied. The measurements are carried out using a Giono and Chevilard plethysmometer.
The test products are administered orally (stomach tube) one hour before the injection of the kaolin.
The results are expressed as a percentage decrease in the inflammation in the treated animals compared with a control series of animals.
The batches are of 10 animals per dose and 10 control animals.
The figures shown represent the mean of 10 animals.

[2] = system: rat hind foot carragheenin-induced oedema; assay: Carragheenin-induced oedema test; format: in vivo; conditions: 3 h, first experiment, Table X, read-out: percentage inhibition of the inflammation; for change in vivo at 25 mg/kg: 25 mg/kg oral; for change in vivo at 50 mg/kg: 50 mg/kg oral; for change in vivo at 100 mg/kg: 100 mg/kg oral
Experimental: In this test, 10 rats are used per test compound of the invention. Control batches of 10 rats also receive either the comparative compound (ketoprofen) or exclusively an NaCl solution.
The compounds of the invention are administered orally (stomach tube) one hour before the injection of carragheenin.
The carragheenin is suspended at a concentration of 1% in a 0.9% isotonic sodium chloride solution. The volume injected into the rat's foot is 0.20 ml.
The volume of the foot is measured before the injection and 3 hours later. The antagonistic effect of the products towards carragheenin is reflected in the inhibition of the volume of the oedema compared with control rats. The latter receive only isotonic NaCl solution under identical conditions.

[3] = system: pain threshold of brewer's yeast inflamed rat hind foot; assay: Randall and Sellitto's test (analgesic activity); format: in vivo; conditions: first experiment, Table XII, read-out: percentage increase in the mean pain threshold; for change in vivo at 25 mg/kg: 25 mg/kg oral; for change in vivo at 50 mg/kg: 50 mg/kg oral; for change in vivo at 100 mg/kg: 100 mg/kg oral
Experimental: Inflammation increases the sensitivity to pain, in particular to pressure, and analgesics raise the threshold of the sensitivity.
The inflammation is obtained by injecting 0.1 ml of a 20% strength aqueous suspension of brewer's yeast under the plantar aponeurosis of one of the hind feet. […] The pain threshold is assessed in terms of the force necessary and sufficient to initiate a characteristic reaction of withdrawing the foot.
The sensitivity to pain of the inflamed foot reaches a plateau 4 hours after the injection of the brewer's yeast, and then remains stable until the 6th hour. The pain threshold of the inflamed foot in control rats weighing 140 g is reached for pressures of 50 to 60 g, whereas it is around 160 g for the intact foot.
The action of the substance administered orally to series of 10 rats is expressed in terms of the percentage increase in the mean pain threshold, compared with that measured in the rats of a control series of 10 animals which have not received a compound of the invention.
The test products are administered orally (stomach tube) one hour before the injection of brewer's yeast.
The comparative compound used is ketoprofen.

[4] = system: biosynthesis of leukotrienes B4 (LTB4), human polymorphonuclear leukocytes; assay: Biosynthesis of LTB4, isomers and oxidized metabolites in human polymorphonuclear leukocytes; format: cell-based; conditions: Leukocyte
Experimental: Polymorphonuclear leukocytes are isolated from human blood and used during the 6 hours following the withdrawal. The viability of the cells is checked by trypan blue exclusion.
5×10^6 cells are incubated for 10 minutes at 37° C. in the presence of the test product dissolved in DMSO, and are stimulated with ionophore A 23187 (Galbiochem, 10 μM) in PBS buffer at pH 7.4, Ca^2+ and Mg^2+ =1 μM.
100 ng of prostaglandin B2 (PGB2), dissolved in methanol, are added at the end of the reaction to act as an internal standard.
On centrifugation, the culture supernatant is withdrawn. The latter is retrieved under argon and stored at -80° C. until analysed by HPLC.
This analysis is carried out by injecting 250 μl onto a 5 μm ODS ultrasphere column (Beckmann), with a gradient of acetonitrile (20-80%) in water, at pH 7.4.
The amounts of the different products which absorb at 269 nm, i.e. leukotrienes B4 (LTB4), isomers of LTB4 and oxidized metabolites of LTB4, are estimated by comparison with the internal standard.
The test product is used at a concentration of 40 μM.
They are expressed either as a percentage inhibition, or as a percentage increase in the production of LTB4, isomers of LTB4 and oxidized metabolites of LTB4 (designated by +).
The experimental model is the same as that described in Section 2.1. Other products are tested by comparison with the compound of the invention no. 1574, used as a control.

[5] = first experiment, read-out: Isomers of LTB4: percentage inhibition (+ : percentage increase in the production)
[6] = first experiment, read-out: LTB4: percentage inhibition (+ : percentage increase in the production)
[7] = first experiment, read-out: Oxidized metabolites of LTB4: percentage inhibition (+ : percentage increase in the production)
[8] = second experiment, read-out: Percentage inhibition of LTB4 formation

SMILES	change in vivo at 25 mg/kg [1] [%]	change in vivo at 50 mg/kg [1] [%]	change in vivo at 100 mg/kg [1] [%]	change in vivo at 25 mg/kg [2] [%]	change in vivo at 50 mg/kg [2] [%]	change in vivo at 100 mg/kg [2] [%]	change in vivo at 25 mg/kg [3] [%]	change in vivo at 50 mg/kg [3] [%]	change in vivo at 100 mg/kg [3] [%]	inhibition at 40 µM [4, 5] [%]	inhibition at 40 µM [4, 6] [%]	inhibition at 40 µM [4, 7] [%]	inhibition at 40 µM [4, 8] [%]
O=C(c1ccccc1)c1ccccc1S(=O)(=O)NCCCN1CCOCC1 [Compound 1340]	-10	-25	-45	-5	-5	-10	10	20	49	–	–	–	–
O=C(c1ccccc1)c1cc(Cl)ccc1S(=O)(=O)NCCN1CCOCC1 [Compound 1343]	–	–	–	-7	-8	-8	10	12	12	–	–	–	–
O=C(c1ccccc1)c1cc(Cl)ccc1S(=O)(=O)NCCCN1CCOCC1 [Compound 1344, 2-benzoyl-4-chloro-N-(3-morpholinopropyl)benzenesulphonamide]	-10	-15	-18	–	–	–	18	18	25	–	–	–	–
O=C(O)CNS(=O)(=O)c1ccc(Cl)cc1C(=O)c1ccccc1 [Compound 1565]	-15	-20	-45	-18	-22	-49	18	28	42	–	–	–	–
O=C(O)CCCNS(=O)(=O)c1ccc(Cl)cc1C(=O)c1ccccc1 [Compound 1567]	-12	-15	-20	-8	-10	-10	12	15	20	–	–	–	–
O=C(O)CCCCCNS(=O)(=O)c1ccc([N+](=O)[O-])cc1C(=O)c1ccccc1 [Compound 1568]	-15	-18	-40	-15	-20	-35	18	25	48	–	–	–	–
O=C(O)CCCCCNS(=O)(=O)c1ccc(Cl)cc1C(=O)c1ccccc1 [Compound 1569]	-28	-30	-45	-30	-35	-50	10	15	25	–	–	–	–
O=C(O)CCCCCCCCCCNS(=O)(=O)c1ccc([N+](=O)[O-])cc1C(=O)c1ccccc1 [Compound 1571]	-17	-26	-50	-23	-27	-48	25	32	36	53	60	70	–
O=C(O)CNS(=O)(=O)c1ccc(Cl)cc1C(=O)c1ccccc1Cl [Compound 1575]	-18	-21	-37	-15	-18	-35	15	19	35	–	–	–	–
O=C(O)CCCCCCCCCCNS(=O)(=O)c1ccccc1C(=O)c1ccccc1 [Compound 1682]	-35	-35	-40	-33	-42	-45	12	15	20	30	30	40	–
O=C(O)CCCCCCCCCCCNS(=O)(=O)c1ccccc1C(=O)c1ccccc1 [Compound 1683]	-25	-30	-40	-25	-30	-35	15	20	30	15	15	30	–
O=C(O)CCCCCCCCCCNS(=O)(=O)c1cccc(C(=O)c2ccccc2)c1 [Compound 1684]	-28	-42	-45	-30	-45	-55	35	45	50	35	20	60	–
O=C(O)CCCCCCCCCCCNS(=O)(=O)c1cccc(C(=O)c2ccccc2)c1 [Compound 1685]	–	–	–	–	–	–	–	–	–	70	50	70	–
O=C(O)CCCCCCCCCCNS(=O)(=O)c1ccc(C(=O)c2ccccc2)cc1 [Compound 1686]	-50	-50	-50	-50	-50	-55	35	50	50	5	0	25	–
O=C(O)CCCCCCCCCCCNS(=O)(=O)c1cccc(C(=O)c2cc(S(=O)(=O)NCCCCCCCCCCCC(=O)O)ccc2Cl)c1 [Compound 1689]	–	–	–	–	–	–	–	–	–	-30	-30	20	–
O=C(O)CCCCCCCCCCNS(=O)(=O)c1ccc(Cl)c(C(=O)c2ccccc2)c1 [Compound 1737, 11-(3-benzoyl-4-chlorobenzenesulphonamido)undecanoic acid]	–	–	–	–	–	–	–	–	–	–	–	–	95
O=C(O)CCCNS(=O)(=O)c1ccc(C(=O)c2cccs2)cc1 [Compound 1738, 4-[4-(2-thenoyl)benzenesulphonamido]butyric acid]	–	–	–	–	–	–	–	–	–	–	–	–	20
O=C(O)CCCCCCCNS(=O)(=O)c1ccc(Cl)cc1C(=O)c1ccccc1Cl [Compound 1743]	–	–	–	–	–	–	–	–	–	–	–	–	20
